Assays:
[1] = Bundle tensile strength of permanently waved and fixed hair
Description: The amount of permanent waving liquid was calculated from the ratio 1:1.2 (1 g of hair to 1.2 g of permanent waving liquid). The amount of 1.2 ml to 1 g of hair corresponds to an amount of 50 ml of permanent waving solution per head with an average weight of […] of hair per head. This solution was allowed to act for 15 minutes; the temperature of the reducing agent acting was 50° C. The permanent waving agent, based on thioglycolic acid, was rinsed out well with water (2 to 3 minutes). Subsequently, the hair strands were in each case moistened intensively with the respective ready-for-use fixative. This procedure was repeated three or six times, in that the strands, after each treatment, was suspended for six hours in the water bath.
The tensile strength of the bundles, which are a measure of the preservation of the hair, were determined using individual strands of hair.

[2] = cited from earlier work
[3] = Permanent waving application test: reductive treatment, then fixing with the ready-for-use fixative; details: hair reduced with 10% thioglycolic acid solution pH 8.2, then fixed
Description: In these examples, the hair was treated reductively in each case in the following manner:
The solution was allowed to act for 15 minutes. The reducing agent acted at a temperature of 50° C.
At the end of the period of action, the excess permanent waving solution was rinsed out with water and the fixing solution was then applied with a sponge. The fixing solution is prepared 2 minutes before use by dissolving component 1 in component 2.
The hair is fixed for 30 minutes at 22° C. and subsequently rinsed with water. The curlers are then removed and the hair is rinsed with lukewarm water. Finally, the hair is styled and then dried.

SMILES | increase in hair damage on repeated use (bundle tensile strength after three vs six treatments) [1] | stability in aqueous solution [2] | brightening of the hair (shift in color) [3]
O=C1O[C@H]([C@@H](O)CO)C(=O)C1=O [Dehydroascorbic Acid, dehydroascorbic acid] | no increase in hair damage | unstable and decomposes within a few hours | –
OO [Peroxide, hydrogen peroxide] | – | – | clearly detectable shift in coloring the direction of red and yellow

— patent publication US6506373B1, “Agent and method for permanent waving” (Wella Aktiengesellschaft, priority 1998, dated 2003)
